According to US10711041B2, “Lyophilisate containing a cyclic peptide of formula X1-[sequence]-X2” (priority 2013, dated 2020):
Bridges are numbered along the chain shown (N, C = ends). Where no end group is shown, it is not given here.

Experiments:
[1] = biological target: T1, amilorid-sensitive Sodium Ion Channel (ENaC) (Homo sapiens, UniProt P37088); experiment: Biological activity of condensed aerosol by Patch Clamp in A549 cells; format: cell-based; settings: Mesh-Type nebulizer, aerosol condensed in cooling trap
T1 construct: Macroscopic Sodium Ion Currents were derived from human lung epithelian cells A549; endogenous in cells; host or cells: A549 human lung epithelial cells
T1 sequence (P37088 1-669): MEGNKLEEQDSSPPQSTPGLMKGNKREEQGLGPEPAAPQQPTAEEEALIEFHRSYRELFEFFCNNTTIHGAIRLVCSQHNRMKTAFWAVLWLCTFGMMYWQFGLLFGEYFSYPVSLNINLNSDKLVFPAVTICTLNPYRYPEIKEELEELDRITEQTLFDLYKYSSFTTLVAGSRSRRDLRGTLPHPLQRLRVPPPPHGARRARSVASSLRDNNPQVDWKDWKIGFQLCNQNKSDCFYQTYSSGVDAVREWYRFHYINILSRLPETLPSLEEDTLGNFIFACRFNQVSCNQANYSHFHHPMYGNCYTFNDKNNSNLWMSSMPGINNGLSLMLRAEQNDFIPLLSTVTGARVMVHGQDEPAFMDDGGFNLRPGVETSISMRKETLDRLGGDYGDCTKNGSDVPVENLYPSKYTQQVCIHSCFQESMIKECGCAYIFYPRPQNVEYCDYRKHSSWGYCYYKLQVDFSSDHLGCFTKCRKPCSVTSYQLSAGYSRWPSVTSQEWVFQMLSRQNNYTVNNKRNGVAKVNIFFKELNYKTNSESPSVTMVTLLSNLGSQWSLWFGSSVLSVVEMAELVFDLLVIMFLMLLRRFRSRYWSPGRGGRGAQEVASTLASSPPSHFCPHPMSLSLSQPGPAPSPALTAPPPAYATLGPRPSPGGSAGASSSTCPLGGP
T1 sequence (P51168 1-640 partner): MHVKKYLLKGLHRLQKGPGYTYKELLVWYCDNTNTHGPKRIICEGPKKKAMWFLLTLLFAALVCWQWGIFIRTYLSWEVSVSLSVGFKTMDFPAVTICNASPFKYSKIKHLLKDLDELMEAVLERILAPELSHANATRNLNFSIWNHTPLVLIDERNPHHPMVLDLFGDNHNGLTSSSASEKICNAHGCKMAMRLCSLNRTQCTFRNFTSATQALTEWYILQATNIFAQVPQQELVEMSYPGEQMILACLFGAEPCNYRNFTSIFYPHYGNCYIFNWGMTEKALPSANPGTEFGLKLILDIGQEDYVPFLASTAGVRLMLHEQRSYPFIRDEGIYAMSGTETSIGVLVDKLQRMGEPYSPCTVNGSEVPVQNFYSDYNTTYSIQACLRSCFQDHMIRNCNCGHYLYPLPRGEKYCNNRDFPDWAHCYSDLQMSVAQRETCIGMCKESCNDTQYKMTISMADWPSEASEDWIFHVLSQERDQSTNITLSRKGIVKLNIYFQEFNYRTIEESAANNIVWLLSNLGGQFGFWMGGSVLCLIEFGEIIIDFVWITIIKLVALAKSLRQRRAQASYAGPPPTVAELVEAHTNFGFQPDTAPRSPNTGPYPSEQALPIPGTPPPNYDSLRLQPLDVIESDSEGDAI
T1 sequence (P51170 1-649 partner): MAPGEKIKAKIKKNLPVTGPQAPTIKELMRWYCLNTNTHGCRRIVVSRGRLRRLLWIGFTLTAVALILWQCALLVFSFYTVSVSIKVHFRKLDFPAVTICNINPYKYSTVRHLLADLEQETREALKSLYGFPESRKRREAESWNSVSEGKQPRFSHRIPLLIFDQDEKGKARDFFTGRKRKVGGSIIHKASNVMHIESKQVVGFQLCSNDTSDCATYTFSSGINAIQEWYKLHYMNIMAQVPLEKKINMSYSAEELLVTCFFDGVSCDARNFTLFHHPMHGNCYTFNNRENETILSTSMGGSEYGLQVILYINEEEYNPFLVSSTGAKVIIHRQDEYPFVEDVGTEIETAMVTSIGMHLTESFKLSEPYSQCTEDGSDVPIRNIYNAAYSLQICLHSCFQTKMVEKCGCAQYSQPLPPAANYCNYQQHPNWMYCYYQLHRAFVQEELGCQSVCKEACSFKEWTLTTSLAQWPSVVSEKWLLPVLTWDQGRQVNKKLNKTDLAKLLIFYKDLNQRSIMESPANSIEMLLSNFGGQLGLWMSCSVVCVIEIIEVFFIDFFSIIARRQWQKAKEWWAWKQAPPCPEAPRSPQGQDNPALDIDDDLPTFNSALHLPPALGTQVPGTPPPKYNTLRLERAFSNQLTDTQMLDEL
Method: (§1) Since proteins and peptides occasionally may be rather unstable, it was investigated, whether the cyclic peptides of amino acid sequence SEQ ID NO:1 to SEQ ID NO:6 in dissolved preparation during conversion into an aerosol remain stable. For that the cyclic peptides were dissolved in water as described in example 4. After filling into the storage container of a nebulizer the aqueous solution of the cyclic peptides were converted into an aerosol. For that a “Mesh-Type” nebulizer was used. The biological activity of the collected aerosols was determined by means of the Patch Clamp method. Thereby macroscopic currents of A549 cells were deduced in the “whole cell” configuration of the “Patch-clamp” technique, as described under “Electrophysiological Investigations of the Amilorid-sensitive Sodium Ion Channel (ENaC)”.

[2] = Concentration in lung tissue and blood after aerosol inhalation, rat; format: in vivo; settings: after inhalation of aerosol
Method: The proof of a cyclic peptide of amino acid sequence SEQ ID NO:1 to SEQ ID NO:6 may take place in lung tissue of rats. For that exemplarily an aerosol was produced with a nebulizer from an aqueous solution of the cyclic peptide of amino acid sequence SEQ ID NO:1. The aerosol was inhaled by the experimental animal (72 mg/kg body weight). After termination of aerosol inhalation, the lung tissue, as well as the blood of the experimental animal was examined. By means of reverse HPLC/MS the concentration of the cyclic peptide of amino acid sequence SEQ ID NO:1 was determined Exemplarily, the cyclic peptide of amino acid sequence SEQ ID NO:1 could be detected in the lung tissue in a concentration of 1.2 μm/g after inhalation of 72 mg/kg body weight in sum. In contrast to that the cyclic peptide of amino acid sequence SEQ ID NO:1 could not be detected in the blood up to a detection limit of 0.1 μm/ml.

[3] = Chemical stability of condensed aerosol by reverse HPLC/MS; format: physicochemical; settings: Mesh-Type nebulizer, aerosol condensed in cooling trap
Method: as §1
The chemical stability of the condensed aerosols was determined by means of reverse HPLC/MS.

[4] = biological target: T1, amilorid-sensitive Sodium Ion Channel (ENaC); experiment: Patch Clamp whole cell sodium current in deglycosylated (PNGase F) and untreated A549 cells; format: cell-based; settings: peptide 240 nM, Eh = −100 mV
Method: […] After control recordings, 240 nM of the peptide of amino acid sequence SEQ ID NO:1 was added to the bath solution. […] Whole cell currents were recorded at Eh=−100 mV. The concentration of the peptides of amino acid sequence SEQ ID NO:1 to SEQ ID NO:7 in the bath solution was 240 nM.

Molecule | biological stability during transformation into an aerosol [1] | concentration in lung tissue ([2]; 72 mg/kg body weight in sum) [μm/g] | concentration in blood ([2]; 72 mg/kg, detection limit) [μm/ml] | chemical stability during transformation into an aerosol [3] | whole cell sodium current ([4]; no pretreatment with PNGase F) | whole cell sodium current ([4]; pre-treatment with PNGase F) | whole cell sodium current ([4]; no pretreatment with PNGase F, listed as SEQ ID NO:7)
C[C@@H]1NC(=O)CNC(=O)[C@H](CCC(=O)O)NC(=O)[C@@H]2CCCN2C(=O)[C@H]([C@@H](C)O)NC(=O)[C@H](CCC(=O)O)NC(=O)[C@H](CCCNC(=N)N)NC(=O)[C@H](CCC(N)=O)NC(=O)CNC(=O)[C@@H](N)CSSC[C@@H](C(=O)O)NC(=O)[C@H](Cc2ccc(O)cc2)NC(=O)[C@H](Cc2c[nH]c3ccccc23)NC(=O)[C@@H]2CCCN2C(=O)[C@H](CCCCN)NC(=O)[C@H](C)NC(=O)[C@H](CCC(=O)O)NC1=O [SEQ ID NO: 1] | keeps its biological, as well as its chemical stability | 1.2 | < 0.1 | keeps its biological, as well as its chemical stability | 1073.3 ± 15.1 pA | 19.6 pA (n = 3) | –
Cyclo(CGQREAPAGAAAKPWYC) (disulfide 1-17) [SEQ ID NO: 7, reference compound] | – | – | – | – | No activity | No activity | no activity
